1 compound from patent US20080188460A1, “Tricyclic compounds, a process for their preparation and pharmaceutical compositions containing them” (LES LABORATOIRES SERVIER, priority 2007, published 2008) can be followed below.

The test system of assay [1] is H146 small-cell lung carcinoma cells. As to conditions: 100 mg/kg intra-peritoneally every day for 21 days. How it is done: The anti-tumour activity of the compounds of the invention is evaluated in a xenotransplant model of H146 small-cell lung carcinoma cells.
5×10^6 H146 cells are transplanted sub-cutaneously into immunosuppressed mice (NOD SCID strain). […] The tumour mass is measured twice a week from the commencement of treatment.

The subject of assay [2] is H146. As to conditions: read-out: IC50 (concentration of compound that inhibits cell viability by 50%); H146, 48 hours exposure. How it is done: (§1) The cytotoxicity studies were carried out on the three tumour lines of Example A. The cells are distributed onto microplates and exposed to the test compounds for 48 hours. The cell viability is then quantified by a colorimetric assay, the Microculture Tetrazolium Assay (Cancer Res., 1987, 47, 939-942).

In assay [3] the test system is RS4;11. The conditions noted are these: read-out: IC50 (concentration of compound that inhibits cell viability by 50%); RS4;11, 48 hours exposure. How it is done:
as §1

Assay [4] has as its system MV4;11. As to conditions: read-out: IC50 (concentration of compound that inhibits cell viability by 50%); MV4;11, 48 hours exposure. How it is done: as §1
Assay [5] deals with RS4;11 cells. The conditions noted are these: at 1 μM, 6 hours exposure. How it is done:
(§2) This study was carried out on three human tumour cell lines: • 1 small-cell lung carcinoma, H146, • 1 acute myeloid leukaemia, MV4; 11, • 1 leukaemia, RS4; 11.
(§3) The cell lines are cultured in an incubator at 37° C. in the presence of 5% CO2. The H146 and RS4;11 cells are cultured in complete RPMI 1640 medium containing 10% foetal calf serum, 2 mM of glutamine, 50 units/ml of penicillin, 50 μg/ml of streptomycin and 10 mM of Hepes buffer, pH=7.4.
(§4) The cells are distributed onto 6-well plates and exposed to the test compounds for 6 hours. They are then harvested and lysed and the caspase activity is measured in the cell lysates. This enzymatic measurement is carried out by measuring the appearance of a fluorigenic cleavage product (Pharmacia).

Assay [6] relates to MV4;11 cells. As to conditions: at 0.1 μM, 6 hours exposure. How it is done: as §2, §3, §4
Assay [7] concerns H146 cells. As to conditions: at 3 μM, 6 hours exposure. How it is done:
as §2, §3, §4

Consider `CN(C)CC[C@H](CSc1ccccc1)Nc1ccc(S(=O)(=O)NC(=O)c2ccc3c(c2)CC[C@@H]2CN(Cc4ccccc4-c4ccc(Cl)cc4)CCN32)cc1[N+](=O)[O-].Cl.Cl` [Example 20], for which the “persistence of the effect after the end of treatment” value in assay [1] was “at least 40 days”. In addition, in assay [1], the tumour regression entry is given as “almost complete tumour regression”. Besides, the IC50 is 305 nM in assay [2], 16.5 nM in assay [3] and 29.5 nM in assay [4]. Further, the caspase activity in assay [5] is 23000 IU; in assay [6] it was 20000 IU; in assay [7], 22000 IU.
